# Test results taken from article PMC9671377, “Label-free affinity screening, design and synthesis of inhibitors targeting the Mycobacterium tuberculosis L-alanine dehydrogenase” (PLOS ONE, 2022).
# Legend:
# L225A AlaDH = L225A AlaDH (Mycobacterium tuberculosis, UniProt P9WQB1, L225A); type: biochemical
# L249A AlaDH = L249A AlaDH (Mycobacterium tuberculosis, UniProt P9WQB1, L249A); type: biochemical
structure (smiles),measurement,setting,value
CC(C)CNc1ncnc2c1ncn2[C@@H]1O[C@H](CO)[C@@H](O)[C@H]1O [N6-isobutyl adenosine],vi of L225A AlaDH after adding compound,L225A AlaDH,0.821 x10^-3 [NADH]OD340/min
same,vi of L249A AlaDH after adding compound,L249A AlaDH,1.007 x10^-3 [NADH]OD340/min
